Test results as given in PMC10002375, “Synthesis of 3-(2-Alkylthio-4-chloro-5-methylbenzenesulfonyl)-2-(1-phenyl-3-arylprop-2-enylideneamino)guanidine Derivatives with Pro-Apoptotic Activity against Cancer Cells” (International Journal of Molecular Sciences, 2023).

Assays:
Assay type in all cases: cell-based, human
[1] = tested on: HeLa cells; experiment: Phosphatidylserine translocation (Annexin V-FITC/PI), HeLa; conditions: 72 h
Excerpt: (§1) One of the early indicators of apoptosis is the exposure of phosphatidylserine residues on the cell’s surface. Annexin V has a high affinity to phosphatidylserine and, as a conjugate to fluorescein isothiocyante (FITC), is widely used for detection of early apoptotic cells using flow cytometry. Detection of late-apoptotic or necrotic cells is achieved by using propidium iodide (PI) stain. Based on the obtained fluorescence, four subpopulations were found: PI-low/FITC-low (live cells), PI-high/FITC-low (necrotic cells), PI-low/FITC-high (early apoptotic cells), and PI-high/FITC-high (late apoptotic cells).
(§2) Analysis was performed using FITC-conjugated annexin-V (Annexin V-FITC Apoptosis Kit I, BD Biosciences, San Jose, CA, USA) according to the manufacturer’s instructions (BD Biosciences) as described previously. HeLa, MCF-7, and HCT-116, after seeding to 24-well plates (5 × 10^4/per well) and 24 h incubation, were treated for 72 h with 24 or 31 (10/25 µM or 25 µM concentration respectively). Following treatment, cells were washed in PBS, centrifuged, and then resuspended in a binding buffer. Afterward, the cells were incubated for 15 min at 37 °C with FITC-conjugated annexin-V and propidium iodide. The samples were then analyzed using a LSR II flow cytometer (BD Biosciences) using 530 ± 25 nm (Annexin V-FITC) and 575 ± 26 nm (PI).
(§3) The subpopulations were identified according to their fluorescence: PI-low/FITC-low (live cells), PI-high/FITC-low (necrotic cells), PI-low/FITC-high (early apoptotic cells), and PI-high/FITC-high (late apoptotic cells).

[2] = tested on: HCT-116 cells; experiment: Cell cycle distribution by flow cytometry, HCT-116; conditions: for cells in sub-G1 phase: 72 h, control 1.15%
Experimental: (§4) The cell cycle distribution was measured by flow cytometry analysis after incubation of MCF-7, HeLa, and HCT-116 with compounds 24 and 31 for 72 h.

[3] = tested on: HeLa cells; experiment: Mitochondrial membrane potential (JC-1, flow cytometry), HeLa; conditions: 72 h, 24 at 10 or 25 μM, 31 at 25 μM
Excerpt: (§5) A decrease in mitochondrial potential is one of the earliest hallmarks of apoptosis. A common method for indication of cells with high and low Δψm is flow cytometry combined with specific fluorescent probes, such as JC-1 (5,5′,6,6′-tetrachloro-1,1′,3,3′-tetraethylbenzimidazolylcarbocyanine iodide). JC-1 accumulates in mitochondria and forms complexes (J aggregates) with red fluorescence in healthy cells with a normal ΔΨm, whereas in apoptotic cells with a low ΔΨm exists as a monomer with green fluorescence.
(§6) Analyzed cells were seeded into wells of a 24-well plate at a density of 5 × 10^4 cells in 1000 µL, incubated overnight, and then the medium was exchanged for dilutions of reagents 24 and 31. Before the end of 72 h of incubation, MitoProbe JC-1 (25 µM) was added into each plate well. Carbonyl cyanide m-chlorophenylhydrazone CCCP (200 nM) as the mitochondrial oxidative phosphorylation uncoupler was added into the positive control 15 min before JC-1 was added. After 30 min of JC-1 staining, cells were washed with PBS and then trypsinized (Corning® 25-053CI). Cells suspended in PBS were analyzed by flow cytometry at λ excitation (ex) = 488 nm and λ emission (em) = 525/570 nm (LSR II BD Biosciences, San Jose, CA, USA).

[4] = tested on: HeLa cells; experiment: Cell morphology by light microscopy, HeLa; conditions: 10 and 25 μM, 72 h
Experimental: (§7) The evaluation of changes in cell morphology has been performed after incubation with compounds 24 and 31 for 72 h using light microscopy.
(§8) The HeLa, MCF-7, and HCT-116 cells were seeded on 24-well plates (5 × 10^4/per well) in 1 mL of medium for 24 h. After that time, cells were treated with 24 and 31 for next 72 h. Cells were treated with 10 µM, 25 µM of 24, or 25 µM of 31. As a control, non-treated cells were used. Morphology of cells was observed after 72 h using light microscope Olympus IX83.

[5] = tested on: MCF-7 cells; experiment: Mitochondrial membrane potential (JC-1, flow cytometry), MCF-7; conditions: MCF-7, 72 h, 24 at 10 or 25 μM, 31 at 25 μM
Excerpt: as §5, §6

[6] = tested on: MCF-7 cells; experiment: Cell cycle distribution by flow cytometry, MCF-7; conditions: for cells in sub-G1 phase: 72 h
Experimental: as §4

[7] = tested on: HCT-116 cells; experiment: Phosphatidylserine translocation (Annexin V-FITC/PI), HCT-116
Excerpt: as §1, §2, §3

[8] = tested on: MCF-7 (breast cancer); experiment: MTT cell viability assay, MCF-7
Excerpt: The cytotoxic activity of the compounds 8–33 has been evaluated in MTT assays against three human cancer cell lines MCF-7 (breast cancer), HeLa (cervical cancer), and HCT-116 (colon cancer) and it was expressed as IC50 values in μM (Table 1).
All chemicals, if not stated otherwise, were obtained from Sigma-Aldrich (St. Louis, MO, USA). The MCF-7 cell line was purchased from Cell Lines Services (Eppelheim, Germany), the HeLa and HCT-116 cell lines were obtained from the Department of Microbiology, Tumor and Cell Biology, Karolinska Institute (Stockholm, Sweden). Cells were cultured in Dulbecco’s modified Eagle’s medium (DMEM) supplemented with 10% fetal bovine serum, 2 mM glutamine, 100 units/mL penicillin, and 100 μg/mL streptomycin. Cultures were maintained in a humidified atmosphere with 5% CO2 at 37 °C in an incubator (HeraCell, Heraeus, Langenselbold, Germany).
Cell viability was determined using the MTT (3-(4,5-dimethylthiazol-2-yl)-2,5-diphenyl-tetrazoliumbromide) assay. Stock solutions of the studied compounds were prepared in 100% DMSO. […] Cells were seeded in 96-well plates at a density of 5 × 10^3 cells/well and treated for 72 h with the examined compounds in the concentration range 1–100 μM (1, 10, 25, 50, and 100 μM). Following treatment, MTT (0.5 mg/mL) was added to the medium and cells were further incubated for 2 h at 37 °C. Cells were lysed with DMSO and the absorbance of the formazan solution was measured at 550 nm with a plate reader (1420 multilabel counter, Victor, Jügesheim, Germany). […] The experiment was performed in triplicate. Values are expressed as the mean ± SD of at least three independent experiments.

[9] = tested on: HeLa cells; experiment: Cell cycle distribution by flow cytometry, HeLa; conditions: 72 h; for cells in sub-G1 phase: control 5.08%
Experimental: as §4

[10] = tested on: MCF-7 cells; experiment: Cell morphology by light microscopy, MCF-7; conditions: MCF-7, 10 and 25 μM, 72 h
Experimental: as §7, §8

Question: Which “level of late apoptotic cells (Annexin V-FITC/PI)” value ([1]; 25 μM) does the source give for `Cc1cc(S(=O)(=O)NC(N)=NN=C(C=Cc2ccccc2O)c2ccccc2)c(SCc2ccccc2Cl)cc1Cl` [Compound 24, 3-{4-chloro-2-[(2-chlorophenyl)methylthio]-5-methylbenzenesulfonyl}-2-[3-(2-hydroxyphenyl)-1-phenylprop-2-enylideneamino]guanidine] here?
Answer: Its value is “significantly increased level of late apoptotic cells”.

Question: And the “population of apoptotic cells (Annexin V-FITC/PI)” value ([1]; 24 at 10 or 25 μM, 31 at 25 μM)?
Answer: The value was “increased population of apoptotic cells”.

Question: And the “cells in sub-G1 phase” value ([2]; HCT-116, 10 μM)?
Answer: The value was 49.69%.

Question: And the “cells in sub-G1 phase” value ([2]; HCT-116, 25 μM)?
Answer: Its value is 65.31%.

Question: And the “effect on cell cycle distribution” value ([2]; HCT-116, 72 h, 24 at 10 and 25 μM, 31 at 25 μM)?
Answer: Its value is “significant increase in the cell distribution in the sub-G1 phase”.

Question: And the “change of mitochondrial membrane potential (ΔΨm)” value [3]?
Answer: The value was “remarkable decrease in ΔΨm”.

Question: And the “changes in cell morphology” value [4]?
Answer: The value was “apoptotic-like changes, such as shrinkage of the cells or detachment from the surface”.

Question: What about the “change of mitochondrial membrane potential (ΔΨm)” value [5] of the same molecule?
Answer: Its value is “remarkable decrease in ΔΨm”.

Question: And the “cells in sub-G1 phase” value ([6]; MCF-7, 10 μM)?
Answer: Its value is 5.22%.

Question: And the “cells in sub-G1 phase” value ([6]; MCF-7, 25 μM)?
Answer: The value was 7.53%.

Question: What about the “effect on cell cycle distribution” value ([6]; MCF-7, 72 h, 24 at 10 and 25 μM, 31 at 25 μM) of the same molecule?
Answer: Its value is “no significant effect on the cell cycle distribution”.

Question: And the “induction of apoptosis (Annexin V-FITC/PI)” value ([7]; HCT-116, 10 μM, 72 h)?
Answer: The value was “Induction of apoptosis”.

Question: What about the “population of apoptotic cells (Annexin V-FITC/PI)” value ([7]; HCT-116, 72 h, 24 at 10 or 25 μM, 31 at 25 μM) of the same molecule?
Answer: The value was “increased population of apoptotic cells”.

Question: And the IC50 ([8]; Homo sapiens, MCF7, MTT, 72 h)?
Answer: Its IC50 is 12 ± 0.6 µM.

Question: What about the “Selectivity Index MCF-7/HaCaT” value ([8]; MCF-7 versus HaCaT, from IC50 values) of the same molecule?
Answer: Its value is 2.7.

Question: And the “cells in sub-G1 phase” value ([9]; 10 μM)?
Answer: Its value is 7.45%.

Question: What about the “cells in sub-G1 phase” value ([9]; 25 μM) of the same molecule?
Answer: The value was 18.07%.

Question: And the “effect on cell cycle distribution” value ([9]; 24 at 10 and 25 μM, 31 at 25 μM)?
Answer: The value was “significant increase in the cell distribution in the sub-G1 phase”.

Question: And the “changes in cell morphology” value [10]?
Answer: The value was “apoptotic-like changes, such as shrinkage of the cells or detachment from the surface”.
